# Assay results as given in ChEMBL document CHEMBL3352237, “Synthesis and biological evaluation of novel peptide BF2 as an antibacterial agent against clinical isolates of vancomycin-resistant enterococci” (J Med Chem, 2014).
# Assays:
# Format in all cases: functional
# Enterococcus [1] = assay: Antibacterial activity against vancomycin-resistant Enterococcus ATCC 51299 after overnight incubation by two-fold serial dilution method
# Enterococcus [2] = assay: Antibacterial activity against vancomycin-resistant Enterococcus ATCC 29212 after overnight incubation by two-fold serial dilution method
# Enterococcus faecalis [3] = assay: Antibacterial activity against vancomycin-resistant Enterococcus faecalis clinical isolate 5814 after overnight incubation by two-fold serial dilution method
# Enterococcus faecalis [4] = assay: Antibacterial activity against vancomycin-resistant Enterococcus faecalis clinical isolate 7670 after overnight incubation by two-fold serial dilution method
# Enterococcus faecalis [5] = assay: Antibacterial activity against vancomycin-resistant Enterococcus faecalis clinical isolate 22626 after overnight incubation by two-fold serial dilution method
# Enterococcus faecalis [6] = assay: Antibacterial activity against vancomycin-resistant Enterococcus faecalis clinical isolate 7077 after overnight incubation by two-fold serial dilution method
# Enterococcus faecalis [7] = assay: Antibacterial activity against vancomycin-resistant Enterococcus faecalis clinical isolate 7079 after overnight incubation by two-fold serial dilution method
# Enterococcus faecalis [8] = assay: Antibacterial activity against vancomycin-resistant Enterococcus faecalis clinical isolate 7846 after overnight incubation by two-fold serial dilution method
# Enterococcus faecalis [9] = assay: Antibacterial activity against vancomycin-resistant Enterococcus faecalis clinical isolate 21/235 after overnight incubation by two-fold serial dilution method
# Enterococcus faecalis [10] = assay: Antibacterial activity against vancomycin-resistant Enterococcus faecalis clinical isolate 5642 after overnight incubation by two-fold serial dilution method
# Enterococcus faecalis [11] = assay: Antibacterial activity against vancomycin-resistant Enterococcus faecalis clinical isolate 6093 after overnight incubation by two-fold serial dilution method
# Enterococcus faecalis [12] = assay: Antibacterial activity against vancomycin-resistant Enterococcus faecalis clinical isolate 22/203 after overnight incubation by two-fold serial dilution method
# Enterococcus faecalis [13] = assay: Antibacterial activity against vancomycin-resistant Enterococcus faecalis clinical isolate 387702 after overnight incubation by two-fold serial dilution method
# Enterococcus faecalis [14] = assay: Antibacterial activity against vancomycin-resistant Enterococcus faecalis clinical isolate 27728 after overnight incubation by two-fold serial dilution method
# Enterococcus faecalis [15] = assay: Antibacterial activity against vancomycin-resistant Enterococcus faecalis clinical isolate 5648 after overnight incubation by two-fold serial dilution method
# Enterococcus faecium [16] = assay: Antibacterial activity against vancomycin-resistant Enterococcus faecium clinical isolate 17301 after overnight incubation by two-fold serial dilution method
# Enterococcus faecium [17] = assay: Antibacterial activity against vancomycin-resistant Enterococcus faecium clinical isolate 7/27 after overnight incubation by two-fold serial dilution method
# Enterococcus faecium [18] = assay: Antibacterial activity against vancomycin-resistant Enterococcus faecium clinical isolate 23/240 after overnight incubation by two-fold serial dilution method
# Enterococcus faecium [19] = assay: Antibacterial activity against vancomycin-resistant Enterococcus faecium clinical isolate 10177 after overnight incubation by two-fold serial dilution method
# Enterococcus faecium [20] = assay: Antibacterial activity against vancomycin-resistant Enterococcus faecium clinical isolate 28/211 after overnight incubation by two-fold serial dilution method
# Enterococcus faecium [21] = assay: Antibacterial activity against vancomycin-resistant Enterococcus faecium clinical isolate 151495 after overnight incubation by two-fold serial dilution method
# Enterococcus faecium [22] = assay: Antibacterial activity against vancomycin-resistant Enterococcus faecium clinical isolate 15/213 after overnight incubation by two-fold serial dilution method
# Enterococcus faecium [23] = assay: Antibacterial activity against vancomycin-resistant Enterococcus faecium clinical isolate 14643 after overnight incubation by two-fold serial dilution method
# Enterococcus faecium [24] = assay: Antibacterial activity against vancomycin-resistant Enterococcus faecium clinical isolate 5396 after overnight incubation by two-fold serial dilution method
# Enterococcus faecium [25] = assay: Antibacterial activity against vancomycin-resistant Enterococcus faecium clinical isolate 31176 after overnight incubation by two-fold serial dilution method
# Enterococcus faecium [26] = assay: Antibacterial activity against vancomycin-resistant Enterococcus faecium clinical isolate 31386 after overnight incubation by two-fold serial dilution method
# Enterococcus faecium [27] = assay: Antibacterial activity against vancomycin-resistant Enterococcus faecium clinical isolate 3864 after overnight incubation by two-fold serial dilution method
# Enterococcus faecium [28] = assay: Antibacterial activity against vancomycin-resistant Enterococcus faecium clinical isolate 27/16917 after overnight incubation by two-fold serial dilution method; conditions: isolate 27/1691
# Enterococcus faecium [29] = assay: Antibacterial activity against vancomycin-resistant Enterococcus faecium clinical isolate 12875 after overnight incubation by two-fold serial dilution method
# Enterococcus faecium [30] = assay: Antibacterial activity against vancomycin-resistant Enterococcus faecium clinical isolate 27/221 after overnight incubation by two-fold serial dilution method
# Enterococcus faecium [31] = assay: Antibacterial activity against vancomycin-resistant Enterococcus faecium clinical isolate 8/224 after overnight incubation by two-fold serial dilution method
# Enterococcus faecium [32] = assay: Antibacterial activity against vancomycin-resistant Enterococcus faecium clinical isolate 147969 after overnight incubation by two-fold serial dilution method
# Enterococcus faecium [33] = assay: Antibacterial activity against vancomycin-resistant Enterococcus faecium clinical isolate 29/203 after overnight incubation by two-fold serial dilution method
# Enterococcus faecium [34] = assay: Antibacterial activity against vancomycin-resistant Enterococcus faecium clinical isolate 30/48 after overnight incubation by two-fold serial dilution method
# Enterococcus faecium [35] = assay: Antibacterial activity against vancomycin-resistant Enterococcus faecium clinical isolate 16475 after overnight incubation by two-fold serial dilution method
# Enterococcus faecium [36] = assay: Antibacterial activity against vancomycin-resistant Enterococcus faecium clinical isolate 16115 after overnight incubation by two-fold serial dilution method
# Enterococcus faecium [37] = assay: Antibacterial activity against vancomycin-resistant Enterococcus faecium clinical isolate 5484 after overnight incubation by two-fold serial dilution method
# Enterococcus faecium [38] = assay: Antibacterial activity against vancomycin-resistant Enterococcus faecium clinical isolate 12/266 after overnight incubation by two-fold serial dilution method
# Enterococcus faecium [39] = assay: Antibacterial activity against vancomycin-resistant Enterococcus faecium clinical isolate 6/22 after overnight incubation by two-fold serial dilution method
# Enterococcus faecium [40] = assay: Antibacterial activity against vancomycin-resistant Enterococcus faecium clinical isolate 18906 after overnight incubation by two-fold serial dilution method
# Enterococcus faecium [41] = assay: Antibacterial activity against vancomycin-resistant Enterococcus faecium clinical isolate 13246 after overnight incubation by two-fold serial dilution method
substance,measurement,setting,value
H-RWRLLLLLKRH-OH,MIC,Enterococcus [1],25 µg/mL
same,MIC,Enterococcus [2],25 µg/mL
same,MIC,Enterococcus faecalis [3],25 µg/mL
same,MIC,Enterococcus faecalis [4],25 µg/mL
same,MIC,Enterococcus faecalis [5],25 µg/mL
same,MIC,Enterococcus faecalis [6],25 µg/mL
same,MIC,Enterococcus faecalis [7],25 µg/mL
same,MIC,Enterococcus faecalis [8],25 µg/mL
same,MIC,Enterococcus faecalis [9],25 µg/mL
same,MIC,Enterococcus faecalis [10],25 µg/mL
same,MIC,Enterococcus faecalis [11],25 µg/mL
same,MIC,Enterococcus faecalis [12],25 µg/mL
same,MIC,Enterococcus faecalis [13],25 µg/mL
same,MIC,Enterococcus faecalis [14],25 µg/mL
same,MIC,Enterococcus faecalis [15],25 µg/mL
same,MIC,Enterococcus faecium [16],25 µg/mL
same,MIC,Enterococcus faecium [17],25 µg/mL
same,MIC,Enterococcus faecium [18],25 µg/mL
same,MIC,Enterococcus faecium [19],25 µg/mL
same,MIC,Enterococcus faecium [20],25 µg/mL
same,MIC,Enterococcus faecium [21],25 µg/mL
same,MIC,Enterococcus faecium [22],25 µg/mL
same,MIC,Enterococcus faecium [23],25 µg/mL
same,MIC,Enterococcus faecium [24],25 µg/mL
same,MIC,Enterococcus faecium [25],25 µg/mL
same,MIC,Enterococcus faecium [26],25 µg/mL
same,MIC,Enterococcus faecium [27],25 µg/mL
same,MIC,Enterococcus faecium [28],25 µg/mL
same,MIC,Enterococcus faecium [29],25 µg/mL
same,MIC,Enterococcus faecium [30],25 µg/mL
same,MIC,Enterococcus faecium [31],25 µg/mL
same,MIC,Enterococcus faecium [32],25 µg/mL
same,MIC,Enterococcus faecium [33],25 µg/mL
same,MIC,Enterococcus faecium [34],25 µg/mL
same,MIC,Enterococcus faecium [35],25 µg/mL
same,MIC,Enterococcus faecium [36],25 µg/mL
same,MIC,Enterococcus faecium [37],25 µg/mL
same,MIC,Enterococcus faecium [38],25 µg/mL
same,MIC,Enterococcus faecium [39],25 µg/mL
same,MIC,Enterococcus faecium [40],25 µg/mL
same,MIC,Enterococcus faecium [41],25 µg/mL
H-RWRLLLLKRH-OH,MIC,Enterococcus [1],12.5 µg/mL
same,MIC,Enterococcus [2],12.5 µg/mL
same,MIC,Enterococcus faecalis [3],12.5 µg/mL
same,MIC,Enterococcus faecalis [4],12.5 µg/mL
same,MIC,Enterococcus faecalis [5],12.5 µg/mL
same,MIC,Enterococcus faecalis [6],12.5 µg/mL
same,MIC,Enterococcus faecalis [7],12.5 µg/mL
same,MIC,Enterococcus faecalis [8],12.5 µg/mL
same,MIC,Enterococcus faecalis [9],12.5 µg/mL
same,MIC,Enterococcus faecalis [10],12.5 µg/mL
same,MIC,Enterococcus faecalis [11],12.5 µg/mL
same,MIC,Enterococcus faecalis [12],12.5 µg/mL
same,MIC,Enterococcus faecalis [13],12.5 µg/mL
same,MIC,Enterococcus faecalis [14],12.5 µg/mL
same,MIC,Enterococcus faecalis [15],12.5 µg/mL
same,MIC,Enterococcus faecium [16],12.5 µg/mL
same,MIC,Enterococcus faecium [17],12.5 µg/mL
same,MIC,Enterococcus faecium [18],12.5 µg/mL
same,MIC,Enterococcus faecium [19],12.5 µg/mL
same,MIC,Enterococcus faecium [20],12.5 µg/mL
same,MIC,Enterococcus faecium [21],12.5 µg/mL
same,MIC,Enterococcus faecium [22],12.5 µg/mL
same,MIC,Enterococcus faecium [23],12.5 µg/mL
same,MIC,Enterococcus faecium [24],12.5 µg/mL
same,MIC,Enterococcus faecium [25],12.5 µg/mL
same,MIC,Enterococcus faecium [26],12.5 µg/mL
same,MIC,Enterococcus faecium [27],12.5 µg/mL
same,MIC,Enterococcus faecium [28],12.5 µg/mL
same,MIC,Enterococcus faecium [29],12.5 µg/mL
same,MIC,Enterococcus faecium [30],12.5 µg/mL
same,MIC,Enterococcus faecium [31],12.5 µg/mL
same,MIC,Enterococcus faecium [32],12.5 µg/mL
same,MIC,Enterococcus faecium [33],12.5 µg/mL
same,MIC,Enterococcus faecium [34],12.5 µg/mL
same,MIC,Enterococcus faecium [35],12.5 µg/mL
same,MIC,Enterococcus faecium [36],12.5 µg/mL
same,MIC,Enterococcus faecium [37],12.5 µg/mL
same,MIC,Enterococcus faecium [38],12.5 µg/mL
same,MIC,Enterococcus faecium [39],12.5 µg/mL
same,MIC,Enterococcus faecium [40],12.5 µg/mL
same,MIC,Enterococcus faecium [41],12.5 µg/mL
